# Assay results: patent US20190015379A1, “USE OF DIANHYDROGALACTITOL AND ANALOGS AND DERIVATIVES THEREOF, TOGETHER WITH RADIATION, TO TREAT NON-SMALL-CELL CARCINOMA OF THE LUNG AND GLIOBLASTOMA MULTIFORME AND SUPPRESS PROLIFERATION OF CANCER STEM CELLS” (DelMar Pharmaceuticals, Inc., priority 2014, published 2019)
# Columns and labels:
# [1] = system: GBM; conditions: GBM; Eagan (1979), Stupp (2005); cited from earlier work
# [2] = GBM chemotherapy, historical data; cited from earlier work
# [3] = Tolerability in A549 tumor-bearing Rag2 mice (body weight, CBC, clinical observations)
# Procedure: (§1) Tumor growth was monitored by measuring tumor dimensions with calipers beginning on the first day of treatment. Tumor length and width measurements were obtained each Monday, Wednesday, and Friday. Tumor volumes were calculated according to the equation L×W^2/2 with the length (in mm) being defined as the longer axis of the tumor. Animals were weighed at the time of tumor measurement. Tumors were allowed to grow to a maximum of 800 mm^3 before termination.
# All animals had blood collected by cardiac puncture at termination for CBC (complete blood count) with differentiation.
# In particular, signs of ill-health were based on body weight loss, change in appetite, and behavioral signs such as altered gait, lethargy, and gross manifestations of stress. If signs of severe toxicity or tumor-related illness were seen, the animals were terminated by isoflurane overdose followed by CO2 asphyxiation, and a necropsy was performed to assess other signs of toxicity. The following organs were examined: liver, gall bladder, spleen, lung, kidney, heart, intestine, lymph nodes, and bladder. Any unusual findings were noted.
# [4] = system: A549 human lung adenocarcinoma xenograft tumors; test: A549 NSCLC xenograft tumor growth in Rag2 mice; assay type: in vivo, female Rag2 mice
# Procedure: The purpose of the study reported in this Example is to evaluate the activity of dianhydrogalactitol in in vivo models of drug-resistant NSCLC in comparison to other drugs, including cisplatin. Rag2 mice bearing subcutaneous human lung adenocarcinoma xenograft tumors of either TKI-resistant (H1975) or TKI-sensitive (A549) origin were treated.
# Two human NSCLC cell lines, A549 (TKI-sensitive) and H1975 (TKI-resistant), were used as xenograft tumor models in female Rag2 mice. The mice were 6 to 8 weeks of age and weighed 18-23 grams. 10 mice were used per group.
# Cisplatin was used in normal saline at a dose of 5 mg/kg. Administration was intravenous.
# Dianhydrogalactitol was used in 0.9% sodium chloride for injection at 1.5 mg/kg to 6 mg/kg. Administration was intraperitoneal.
# Treatment was initiated at a tumor volume of 100 mm^3 to 150 mm^3.
# On day 0, tumor cells were implanted subcutaneously into mice in a volume of 50 μL in Matrigel™ using a 28-gauge needle; injection of the tumor cells was in the back of the mice. Mice were randomly assigned to groups based on tumor volume.
# as §1
# [5] = Mischler et al. 1979; cited from earlier work
# [6] = cisplatin 5 mg/kg Q7D x 3 i.v. (group 2)
structure (smiles),measurement,setting,value
"O=NN(CCCl)C(=O)NCCCl [Carmustine, carmustine, reference compound]",Median O.S. (XRT + Chemo),[1],40-50 weeks
"Cn1nnc2c(C(N)=O)ncn2c1=O [temozolomide, reference compound]",DLT,[2],Hematologic
same,Nadir,[2],21 to 28 days
same,Recovery,[2],Within 14 days
"N.N.[Cl][Pt][Cl] [cisplatin, reference compound]",body weight loss,[3]; cisplatin 5 mg/kg (group 2),body weight loss was observed
same,tolerability of the dosage,"[3]; cisplatin 5 mg/kg, 1 mouse unable to receive the last dose",may also be near the MTD
same,day on which a mean tumor volume of 400 mm^3 was reached,[4]; [6],66 days
same,number of animals remaining on study on day 70,[4]; [6],6/10
same,tumor doubling time,[4]; [6],17
same,day on which a mean tumor volume of 200 mm^3 was observed,"[4]; cisplatin 5 mg/kg Q7D x 3 i.v. (group 2), days post-inoculation",49 days
same,tumor growth delay compared to untreated controls,[4]; cisplatin 5 mg/kg i.v. (positive control),4 days
O[C@H]([C@H](O)[C@@H](O)CBr)[C@H](O)CBr [dibromodulcitol],absorption by the oral route,[5],rapid and fairly complete
